Values quoted from earlier work, collected in patent US20050118594A1, “Enzymes” (priority 2001, published 2005).

[1] = mild hypertriglyceridemia (e.g., triglycerides <400 mg/dl)

| Compound | lowering of VLDL levels (second generation agents, compared with gemfibrozil) | decrease in triglyceride levels [1] | increase in HDL cholesterol concentrations [1] | change in LDL cholesterol levels (mild hypertriglyceridemia, particularly in subjects with familial combined hyperlipidemia) | decrease in LDL levels (patients with heterozygous familial hypercholesterolemia) |
| --- | --- | --- | --- | --- | --- |
| CC(C)(Oc1ccc(C2CC2(Cl)Cl)cc1)C(=O)O (centres unmarked) [ciprofibrate] | to a degree similar to that produced by gemfibrozil | – | – | – | – |
| Cc1ccc(C)c(OCCCC(C)(C)C(=O)O)c1 [gemfibrozil] | – | ≥ 50% | 15-25% | either no change or an increase | 10% |
